Laboratory results as given in article PMC8776995 (Frontiers in Chemistry, 2022).
Values joined by “and” are separate entries in the source; they are usually repeats but may differ in a detail not shown here. Equal values may be shown once.

Experiments:
[1] = test system: CCND1, CCNA2, CCNB1, CDK2, CDK6 RNA in PC-9 cells; assay: qPCR assay for cell cycle-related gene analysis; assay type: cell-based, human; details: for RQ, CCNB / RQ, CCND1 / RQ, CDK6 / RQ, CCNA / RQ (CDK2): endogenous control b-Actin, reference sample NC; for CDK6 relative mRNA expression (fold of NC): normalised to beta-Actin, relative to NC = 1; for 2^ΔΔCт CDK6: recalculated summary 20201020-1, normalized to WT (NC); for RQ, CCNA: target CCNA
Description: To better understand the mechanisms underlying cell cycle arrest induced by e4 and e12 in NSCLC cells, we assessed the expression levels of a few genes involved in cell cycle regulation, including cyclin D1 (CCND1), cyclin A2 (CCNA2), cyclin B1 (CCNB1), cyclin-dependent kinase 2 (CDK2), and cyclin-dependent kinase 6 (CDK6) in PC-9 by qPCR. […] CCNA2 is known to bind and activate CDK2 and thus promotes the transition through G1/S and G2/M. CCNB1 and CCND1 are essential to mitosis and G1/S transition respectively. While G2/M arrest weas not detected, the changes in these gene expression profiles interpret the G1/S arrests in PC-9 cells treated with e4 and e12. PC-9 cells exposed to the compounds for various periods should be examined further.
Total RNA of cells was extracted and cDNA was synthesized. The primers for the target products were designed as in Table 3.

H460 cells = assay: Annexin V/PI flow cytometry for cell apoptosis, H460; assay type: cell-based, human; details: for Percentage of apoptosis, Average: average of three runs; for Q2+Q3 / Lymphocytes/Q2: FITC-A+ , PI-A+ Freq. of Parent / Lymphocytes/Q3: FITC-A+ , PI-A- Freq. of Parent / Percentage of apoptosis: single runs; for Q2+Q3: given as fraction; for Lymphocytes/Q2: FITC-A+ , PI-A+ Freq. of Parent / Lymphocytes/Q3: FITC-A+ , PI-A- Freq. of Parent / Percentage of apoptosis: time as in file name (24h, 48h or not given)
Description: To establish whether the antiproliferative efficacy is associated with apoptosis, PC-9 and H460 cells were treated with compound e4 or e12 of various concentrations (4, 8 and 12 μM) for 48 h, and then assessed with flow cytometry.
Cell-apoptosis analysis was carried out by flow cytometry using the Annexin V/PI apoptosis kit according to the manufacturer’s manual. Briefly, PC-9 or H460 (3 × 10^4–5 × 10^4/well) cells were seeded in 12-well plates for 24 h, and then treated with 0.1% DMSO (as control) or various concentrations of compound e4 or e12 for 48 h, respectively. Cells were harvested, washed with PBS, and then incubated with 100ul of 1X Annexin V binding buffer containing 1 μl PI and 1 μl FITC Annexin V for 15 min at RT in the dark. 200 µl of 1X binding buffer were added to each tube for flow cytometry analysis (BD LSRFortessa™ Flow Cytometer). The percentages of apoptotic cells were analyzed using FlowJo soft.

[2] = test system: EGFR phosphorylation (Tyr1068) in H460 cells; assay: Western blot, p-EGFR/EGFR in H460; details: for p-EGFR/EGFR: band density ratio; for p-EGFR/EGFR relative to DMSO: ratio normalised to DMSO
Description: We also performed western blot analysis to evaluate the impact of e4 and e12 on EGFR signaling in PC-9 and H460 cells.
H460 cells were seeded in six-well plates with serum-free medium overnight, and then treated complete medium containing 0.1% DMSO, various concentrations (0.1, 1 and 10 μM) of either compound e4 or e12 for 2 h, respectively. […] Then the H460 cells were treated with complete medium containing EGF (10 ng/ml) for 5 min. Then the cells were harvested and washed with PBS, centrifuged, resuspended in 100–200 μl of RIPA lysis buffer containing Protease and Phosphatase Inhibitor Cocktail (1X), and then centrifuged for 5 min at 12,000 rpm at 4°C. The supernatant was used for protein analysis. […] Then the membrane was washed 5 min (X3) and incubated at 1:3,000 dilution of anti-rabbit secondary antibodies or 1:1,000 dilution of anti-mouse secondary antibodies for 1 h at RT. After washing with TBST 5 min (X3), protein bands were developed by chemiluminescence. The protein levels were quantified by the gray values of the bands in the resulting images by ImageJ, and the control group was used as the standard. […] The PC-9 cells were harvested and analyzed as above.

PC-9 cells = assay: Hoechst 33342 staining for cell apoptosis; assay type: cell-based, human; details: PC-9, various concentrations, 48 h, vs 0.1% DMSO
Description: To further verify the impact of compounds e4 and e12 on apoptosis of NSCLC cells, PC-9 cells were treated with either compound e4 or e12 at various concentrations for 48 h and then stained with dye Hoechst 33342.
PC-9 cells were seeded in 96-well plates, then treated with 0.1% DMSO (as control) or various concentrations of compound e4 or e12 for 48 h. Culture medium from the cells was removed and replaced with medium containing dye Hoechst 33342. Cells were incubated at 37°C for 5–15 min, washed with PBS twice, and then observed and imaged under the Nikon Ti-U microscope.

Q: Which results are given for COCCOc1cc2ncnc(Nc3cccc(-c4cn(Cc5cc(Br)cc(Br)c5)nn4)c3)c2cc1OCCOC [e4, [6,7-Bis-(2-methoxy-ethoxy)-quinazolin-4-yl]-{3-[1-(3,5-dibromo-benzyl)-1H-[1,2,3]triazol-4-yl]-phenyl}-amine]?
A: RQ, CCNB ([1]; qPCR SYBR Green, CCNB mRNA, 4uM): 1.076; RQ, CCNB ([1]; qPCR SYBR Green, CCNB mRNA, 8uM): 1.137; RQ, CCNB ([1]; qPCR SYBR Green, CCNB mRNA, 12uM): 0.9859; RQ, CCND1 ([1]; qPCR SYBR Green, CCND1 mRNA, 4uM): 1.076; RQ, CCND1 ([1]; qPCR SYBR Green, CCND1 mRNA, 8uM): 0.7718; RQ, CCND1 ([1]; qPCR SYBR Green, CCND1 mRNA, 12uM): 0.7441; RQ, CDK6 ([1]; qPCR SYBR Green, CDK6 mRNA, 4uM): 1.387; RQ, CDK6 ([1]; qPCR SYBR Green, CDK6 mRNA, 8uM): 1.7457; RQ, CDK6 ([1]; qPCR SYBR Green, CDK6 mRNA, 12uM): 1.348; CDK6 relative mRNA expression (fold of NC, normalised to beta-Actin) ([1]; qPCR, SYBR Green, 8uM): 1.746; CDK6 relative mRNA expression (fold of NC) ([1]; qPCR, SYBR Green, 8uM): 0.9943; CDK6 relative mRNA expression (fold of NC) ([1]; qPCR, SYBR Green, 12uM): 1.109; 2^ΔΔCт CDK6 ([1]; CDK6, 4uM): 1.387; 2^ΔΔCт CDK6 ([1]; CDK6, 8uM): 1.746; RQ, CCNA ([1]; 4uM): 0.7613; RQ, CCNA ([1]; 8uM): 0.7109; RQ, CCNA ([1]; 12uM): 0.5857; RQ, CCNB ([1]; target CCNB, 4uM): 0.8081; RQ, CCNB ([1]; target CCNB, 8uM): 0.7848; RQ, CCNB ([1]; target CCNB, 12uM): 0.736; RQ, CCND1 ([1]; target CCND1, 4uM): 0.8337; RQ, CCND1 ([1]; target CCND1, 8uM): 0.7172; RQ, CCND1 ([1]; target CCND1, 12uM): 0.6074; RQ (CDK2) ([1]; target CDK2, 8uM): 1.1688; RQ (CDK2) ([1]; target CDK2, 12uM): 0.9257; RQ, CDK6 ([1]; target CDK6, 4uM): 0.8111; RQ, CDK6 ([1]; target CDK6, 8uM): 0.824; RQ, CDK6 ([1]; target CDK6, 12uM): 1.051; Percentage of apoptosis, Average (H460 cells; H460, 4uM): 9.783%; Q2+Q3 (H460 cells; H460, 4uM): 0.1032 and 0.0852 and 0.1051; Lymphocytes/Q2: FITC-A+ , PI-A+ Freq. of Parent (H460 cells; H460, 4uM): 5.85% and 4.70% and 6.80%; Lymphocytes/Q3: FITC-A+ , PI-A- Freq. of Parent (H460 cells; H460, 4uM): 4.47% and 3.82% and 3.71%; Percentage of apoptosis (H460 cells; H460, 4uM): 10.32% and 8.52% and 10.51%; Percentage of apoptosis, Average (H460 cells; H460, 8uM): 47.9767%; Q2+Q3 (H460 cells; H460, 8uM): 0.4733 and 0.459 and 0.507; Lymphocytes/Q2: FITC-A+ , PI-A+ Freq. of Parent (H460 cells; H460, 8uM): 41.3% and 35.4% and 44.0%; Lymphocytes/Q3: FITC-A+ , PI-A- Freq. of Parent (H460 cells; H460, 8uM): 6.03% and 10.5% and 6.70%; Percentage of apoptosis (H460 cells; H460, 8uM): 47.33% and 45.9% and 50.7%; Percentage of apoptosis, Average (H460 cells; H460, 12uM): 72.3733%; Q2+Q3 (H460 cells; H460, 12uM): 0.7923 and 0.7087 and 0.6702; Lymphocytes/Q2: FITC-A+ , PI-A+ Freq. of Parent (H460 cells; H460, 12uM): 74.3% and 67.3% and 60.8%; Lymphocytes/Q3: FITC-A+ , PI-A- Freq. of Parent (H460 cells; H460, 12uM): 4.93% and 3.57% and 6.22%; Percentage of apoptosis (H460 cells; H460, 12uM): 79.23% and 70.87% and 67.02%; cell apoptosis (flow cytometry) (H460 cells; H460, 4, 8 and 12 μM, 48 h): significant cell apoptosis; p-EGFR/EGFR ([2]; H460, 0.1 uM): 0.8093; p-EGFR/EGFR relative to DMSO ([2]; H460, 0.1 uM): 0.9725; p-EGFR/EGFR ([2]; H460, 1 uM): 0.8837; p-EGFR/EGFR relative to DMSO ([2]; H460, 1 uM): 1.062; p-EGFR/EGFR ([2]; H460, 10 uM): 0.3865; p-EGFR/EGFR relative to DMSO ([2]; H460, 10 uM): 0.4645; phosphorylation of EGFR (western blot) ([2]; H460, especially at 10 μM): suppressed; apoptotic morphology, Hoechst 33342 staining (PC-9 cells): exhibited features typical of apoptosis
